Measurements from US10759740B2, “Antibacterial agents” (Rutgers, The State University of New Jersey, priority 2016, dated 2020).
Converted amounts (≈) assume the structure as drawn.

What was measured:
Escherichia coli O157:H7 = test: Broth microdilution assay (MIC); format: cell-based; settings: BHI broth, 37° C., 24 h, no visible growth
Experimental: (§1) From the frozen stock (−80° C.), bacteria were inoculated into brain-hear infusion (BHI) agar (Becton Dickinson, Franklin Lakes, N.J.) and propagated under aerobic conditions at 37° C. for 24 h. After the incubation, one colony of each bacterial strain was transferred to BHI broth (Becton Dickinson, Franklin Lakes, N.J.) and sub-cultured at least twice into BHI before being used in experiments.
(§2) The minimal inhibitory concentration (MIC) of CAms were identified using a broth microdilution assay modified from previous studies. Briefly, the stock solutions of CAMs were first prepared by dissolving in double-distilled water (ddH2O) and then diluted in BHI broth at pre-determined concentrations. Further serial 2-fold dilutions were performed in a 96-well microplate (Becton Dickinson, Franklin Lakes, N.J.) with BHI broth. The inoculum concentration was adjusted to 5×10^6 CFU/mL with ultraviolet-visible (UV-vis) spectroscopy at 600 nm. An equal volume (100 μL) of bacterial suspension was added to each microplate well with a final volume of 200 μL. Plates were incubated at 37° C. for 24 h under aerobic conditions. The lowest CAm concentration that yielded no visible growth was recorded as the MIC. Cetyltrimethylammonium bromide (CTAB), a cationic amphiphile, served as a positive control that could mimic the proposed bactericidal mechanism of the newly synthesized tartaric acid-based compounds.
(§3) CAms were evaluated against five selected pathogenic microorganisms, including Gram-positive bacteria (i.e., S. aureus and L. monocytogenes) and Gram-negative bacteria (i.e., E. coli, S. typhimurium, and P. aeruginosa), using a turbidity-based microdilution method. MICs were taken as the lowest concentrations that inhibited the visible bacterial growth. […] The higher MIC values for the Gram-negative bacteria could be attributed to the presence of an additional lipopolysaccharide layer, which forms a hydrophilic barrier that could prevent penetration of the highly hydrophobic CAms.

[1] = test system: Listeria monocytogenes Scott A; test: Broth microdilution assay (MIC); format: cell-based; settings: BHI broth, 37° C., 24 h, no visible growth
Experimental: as §1, §2, §3

[2] = test system: Pseudomonas aeruginosa ATCC 15442; test: Broth microdilution assay (MIC); format: cell-based; settings: BHI broth, 37° C., 24 h, no visible growth
Experimental: as §1, §2, §3

[3] = test system: Staphylococcus aureus ATCC 13565; test: Broth microdilution assay (MIC); format: cell-based; settings: BHI broth, 37° C., 24 h, no visible growth
Experimental: as §1, §2, §3

[4] = test system: Salmonella enterica serovar typhimurium; test: Broth microdilution assay (MIC); format: cell-based; settings: BHI broth, 37° C., 24 h, no visible growth
Experimental: as §1, §2
CAms were evaluated against five selected pathogenic microorganisms, including Gram-positive bacteria (i.e., S. aureus and L. monocytogenes) and Gram-negative bacteria (i.e., E. coli, S. typhimurium, and P. aeruginosa), using a turbidity-based microdilution method. MICs were taken as the lowest concentrations that inhibited the visible bacterial growth.

[5] = test system: Gram-positive and Gram-negative bacteria; test: Broth microdilution assay, whole panel; format: cell-based; settings: 250 μg/mL
Experimental: as §1
as §2, with “Plates were incubated at 37° C. for 24 h under aerobic conditions.” left out, “Cetyltrimethylammonium bromide (CTAB), a cationic amphiphile, served as a positive control that could mimic the proposed bactericidal mechanism of the newly synthesized tartaric acid-based compounds.” left out
CAms were evaluated against five selected pathogenic microorganisms, including Gram-positive bacteria (i.e., S. aureus and L. monocytogenes) and Gram-negative bacteria (i.e., E. coli, S. typhimurium, and P. aeruginosa), using a turbidity-based microdilution method. […]

[6] = test system: G. vaginalis pre-formed biofilms; test: MBC-B against pre-formed biofilms (Example 2); format: cell-based; settings: ≥3 log reduction in viable cells
Experimental: The minimum biofilm bactericidal concentrations (MBC-Bs) of the cationic amphiphiles against pre-formed biofilms of L. monocytogenes and G. vaginalis were identified. The biofilms of the two targeted microorganisms were grown in 96-well plates according to established methodology for Gram-positive and Gram-variable bacteria (Tabak et al., FEMS microbiology letters. 2009; 301(1):69-76). To identify the reduction in the number of biofilm-associated viable cells treated with different concentrations of cationic amphiphiles, the spot plate method was used (Turovskiy et al., Infectious diseases in obstetrics and gynecology. 2012; 2012:284762, 9 pages). In brief, biofilms were washed, disrupted, diluted 10^1-10^8 times with fresh medium and the samples plated on suitable solid medium.

[7] = test system: planktonic cells of G. vaginalis; test: Checkerboard assay, planktonic cells; format: cell-based, Gardnerella vaginalis
Experimental: To evaluate the potential effectiveness of the antimicrobial combinations on planktonic and biofilm cells, a checkerboard assay was performed following Algburi et al. (Algburi et al., 2015. Path Dis 73(5)) with minor modifications. For planktonic cells, the overnight grown G. vaginalis was diluted to approximately 10^6 CFU/ml. Each antimicrobial agent was diluted twofold with sBHI broth into two separate 96-well non-tissue culture microplates. From each dilution of antimicrobial B, 50 μl was added horizontally over 50 μl of antimicrobial A. Then, 100 μl of bacterial suspension (10^6 CFU/ml) was separately added to the predetermined concentration of antimicrobial combinations. The MIC of each combination was determined after 24 h of incubation.
(§4) Isobolograms were used to compare the MIC and MBC-B values of each antimicrobial alone with its MIC and MBC-B values in combination with other antimicrobials. The point on the axis (X) refers to MIC or MBC-B values of the first antimicrobial with the coordinates (0, x), and the point on the axis (Y) represents the MIC or MBC-B values of the second antimicrobial with the coordinates (y, 0) when they used alone. The two MIC or MBCs-B values are connected by a dashed line (Turovskiy Y, Chikindas M L. 2011 Probiotics Antimicrob Proteins 3:144-149). The MICs or MBCs-B of each antimicrobial combination are plotted as dots on the graph. Results are expressed according to the locations of these dots from the line that connects MICs or MBCs-B of the first and second antimicrobials. When MICs or MBCs-B values are located under the line, the two combining antimicrobials are synergized, but antagonized against the tested microorganism when these dots of interaction are above. An additive effect is observed when these dots are located on the line.

biofilms of G. vaginalis = test: Checkerboard assay, biofilm cells; format: cell-based, Gardnerella vaginalis
Experimental: For biofilm formation, the overnight culture of G. vaginalis was diluted to approximately 10^7 CFU/ml and 200 μl was transferred into a 96-well tissue culture microplate and incubated anaerobically at 37° C. for 24-36 h. Following biofilm formation and removal of non-adherent cells by washing the biofilm twice with BHIG, each antimicrobial was diluted twofold separately with BHIG broth into two 96-white deep-well microplates. From each dilution of antimicrobial B, 125 μL was added horizontally over 125 μL of antimicrobial A (see FIG. 1 of Algburi et al., 2015. Path Dis 73(5)). From each combination, 200 μL samples were added to the biofilm in sequence, and the microplate was incubated for 24 h at 37° C. under anaerobic conditions. The spot plate method was utilized for counting the number of CFU/ml and evaluating the bactericidal activity (MBC-B) of each antimicrobial combination against biofilm-associated G. vaginalis. Isobolograms were used to analyze the nature of antimicrobial interaction, which is classified as synergistic, antagonistic or additive activity against the planktonic and biofilm cells.
as §4

vaginal lactobacilli = test: MIC against vaginal lactobacilli; format: cell-based, Lactobacillus species
Experimental: According to Clinical and Laboratory Standards Institute (CLSI 2010), the MIC is defined as the lowest concentration of antimicrobial compound producing no visible growth or complete inhibition of bacterial growth during 24 h. To determine MIC values, the broth microdilution assay was performed according to Algburi et al. (Algburi et al., 2015. Path Dis 73(5)) with minor modifications. Briefly, the overnight-grown cells were diluted with their suitable culture medium to approach ˜10^6 CFU/ml. The number of bacterial cells was identified using spot plate method (Turovskiy et al., 2012. Infect Dis Obstet Gynecol 2012:284762). The CAms were serially diluted twofold with sBHI into a non-tissue culture 96-well microplate plate (Falcon, Corning Incorporated, Corning, N.Y., USA) resulting in a final volume of 100 μl for each well. Aliquots of 100 μl of the diluted cell suspension (˜10^6 CFU/ml) were added to each well of a microplate that was treated with different concentrations of CAms. To avoid culture medium evaporation, 75 μl of mineral oil (Sigma-Aldrich, St. Louis, Mo.) was added to each treated well. The microplate was then transferred to the plate reader (Model 550, Bio-Rad Laboratories, Hercules, Calif., USA) and incubated at 37° C. for 24-36 h. The kinetic reading was statistically analyzed, and the MIC and sub-MIC of each CAm compound were determined.

Row | metronidazole's MIC in combination with the tested CAms [7] | MIC ([7]; Gardnerella vaginalis, read-out: MIC when used alone) | metronidazole's MIC against biofilms in combination with the tested CAms (biofilms of G. vaginalis) | metronidazole's MIC against biofilms, metronidazole alone (biofilms of G. vaginalis) | SMILES | MIC E. coli (G−) (Escherichia coli O157:H7) | MIC L. monocytogenes (G+) [1] | MIC P. aeruginosa (G−) [2] | MIC S. aureus (G+) [3] | MIC S. typhimurium (G−) [4] | antimicrobial activity at the highest concentration tested [5] | MBC ([6]; Gardnerella vaginalis, pre-formed biofilm) | MBC-B, biofilm-associated G. vaginalis [6] | concentration that inhibited the growth of vaginal lactobacilli (vaginal lactobacilli)
1 |  |  |  |  | CCCCCCCCCCCCOC(C(=O)NCCN)C(OCCCCCCCCCCCC)C(=O)NCCN.Cl.Cl (stereo not shown) [5c] | >250 µg/mL | 125 µg/mL | >250 µg/mL | 3.9 µg/mL | >250 µg/mL | didn't show appreciable antimicrobial activity |  |  | 
2 |  |  |  |  | CCCCCCCCCCCC(=O)OC(C(=O)NCCN)C(OC(=O)CCCCCCCCCCC)C(=O)NCCN.Cl.Cl (stereo not shown) [8c] | >250 µg/mL | >250 µg/mL | >250 µg/mL | 15.6 µg/mL | >250 µg/mL | didn't show appreciable antimicrobial activity |  |  | 
3 |  |  |  |  | CCC[C@@H]1C[C@@H](C(=O)N[C@@H]([C@H]2O[C@H](SC)[C@H](O)[C@@H](O)[C@H]2O)[C@H](C)Cl)N(C)C1 [clindamycin, reference compound] |  |  |  |  |  |  | 20000 µg/mL (≈ 47.1 mM) |  | 
4 | 4.7 µM | 37.4 µM | 11.1 µM | 40.4 µM | Cc1ncc([N+](=O)[O-])n1CCO [metronidazole, reference compound] |  |  |  |  |  |  |  | 500 µg/mL (≈ 2.92 mM) | > 1168.5 µM
